Test results from PubChem BioAssay AID2060891 (Molecular Pharmacology Branch, DTP, NCI, 2025).

system: K98450-129-R-PDC complex spheroid growth, percent test/control; experiment: Anticancer human tumor K98450-129-R-PDC patient-derived colon adenocarcinoma cell line growth inhibition [RAS]; conditions: second compound 0.1 µM; first compound 0.1 µM; hits give low values
Method in brief: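 Agents were tested in combination matrices in half-log decrements from a top concentration at or near clinical Cmax (10 microM if undetermined). Targets were multi-cell spheroids of tumour lines plus HUVEC and MSC stromal cells.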
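Note: luminescence used as a proxy for viable cell amount; spheroids exposed to agents for seven days before the viability readout.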

Q: How did the viability, T/C turn out when CC(C)NCC(C(=O)N1CCN(c2ncnc3c2C(C)CC3O)CC1)c1ccc(Cl)cc1 (stereo unspecified) + C=CC(=O)N1CCN(c2nc(OCC3CCCN3C)nc3c(F)c(-c4nc(N)cc(C)c4C(F)(F)F)c(Cl)cc23)C(C)C1 was run?
A: 52.5%

Q: For CC(C)n1nc(-c2ccc3oc(N)nc3c2)c2c(N)ncnc21 + C=CC(=O)N1CCN(c2nc(OCC3CCCN3C)nc3c(F)c(-c4nc(N)cc(C)c4C(F)(F)F)c(Cl)cc23)C(C)C1, which viability, T/C is on record?
A: 27.2%

Q: For CC1(O)CCCC1n1c(=O)c(C(F)F)cc2cnc(NC3CCN(S(C)(=O)=O)CC3)nc21 (stereo unspecified) + C=CC(=O)N1CCN(c2nc(OCC3CCCN3C)nc3c(F)c(-c4nc(N)cc(C)c4C(F)(F)F)c(Cl)cc23)C(C)C1, which viability, T/C is on record?
A: 55.6%

Q: How did the viability, T/C turn out when CCN1CCN(Cc2ccc(Nc3ncc(F)c(-c4cc(F)c5nc(C)n(C(C)C)c5c4)n3)nc2)CC1 + C=CC(=O)N1CCN(c2nc(OCC3CCCN3C)nc3c(F)c(-c4nc(N)cc(C)c4C(F)(F)F)c(Cl)cc23)C(C)C1 was run?
A: 36.6%

Q: Which viability, T/C does the source give for C[C@@H](NC(=O)c1ncnc(N)c1Cl)c1ncc(C(=O)Nc2cc(C(F)(F)F)c(Cl)cn2)s1 + C=CC(=O)N1CCN(c2nc(OCC3CCCN3C)nc3c(F)c(-c4nc(N)cc(C)c4C(F)(F)F)c(Cl)cc23)C(C)C1 here?
A: 66.6%

same assay, conditions: second compound 0.1 µM; first compound 0.316 µM; hits give low values

Q: How did the viability, T/C turn out when CC(C)NCC(C(=O)N1CCN(c2ncnc3c2C(C)CC3O)CC1)c1ccc(Cl)cc1 (stereo unspecified) + C=CC(=O)N1CCN(c2nc(OCC3CCCN3C)nc3c(F)c(-c4nc(N)cc(C)c4C(F)(F)F)c(Cl)cc23)C(C)C1 was run?
A: 53.7%

Q: How did the viability, T/C turn out when CC1(O)CCCC1n1c(=O)c(C(F)F)cc2cnc(NC3CCN(S(C)(=O)=O)CC3)nc21 (stereo unspecified) + C=CC(=O)N1CCN(c2nc(OCC3CCCN3C)nc3c(F)c(-c4nc(N)cc(C)c4C(F)(F)F)c(Cl)cc23)C(C)C1 was run?
A: 48.2%

Q: How did the viability, T/C turn out when CCN1CCN(Cc2ccc(Nc3ncc(F)c(-c4cc(F)c5nc(C)n(C(C)C)c5c4)n3)nc2)CC1 + C=CC(=O)N1CCN(c2nc(OCC3CCCN3C)nc3c(F)c(-c4nc(N)cc(C)c4C(F)(F)F)c(Cl)cc23)C(C)C1 was run?
A: 27%

Q: C[C@@H](NC(=O)c1ncnc(N)c1Cl)c1ncc(C(=O)Nc2cc(C(F)(F)F)c(Cl)cn2)s1 + C=CC(=O)N1CCN(c2nc(OCC3CCCN3C)nc3c(F)c(-c4nc(N)cc(C)c4C(F)(F)F)c(Cl)cc23)C(C)C1 was tested. Which viability, T/C did it give?
A: 59.2%

same assay, conditions: second compound 0.1 µM; first compound 1 µM; hits give low values

Q: Which viability, T/C does the source give for CC(C)NCC(C(=O)N1CCN(c2ncnc3c2C(C)CC3O)CC1)c1ccc(Cl)cc1 (stereo unspecified) + C=CC(=O)N1CCN(c2nc(OCC3CCCN3C)nc3c(F)c(-c4nc(N)cc(C)c4C(F)(F)F)c(Cl)cc23)C(C)C1 here?
A: 57%

Q: How did the viability, T/C turn out when CC1(O)CCCC1n1c(=O)c(C(F)F)cc2cnc(NC3CCN(S(C)(=O)=O)CC3)nc21 (stereo unspecified) + C=CC(=O)N1CCN(c2nc(OCC3CCCN3C)nc3c(F)c(-c4nc(N)cc(C)c4C(F)(F)F)c(Cl)cc23)C(C)C1 was run?
A: 34%

Q: For CCN1CCN(Cc2ccc(Nc3ncc(F)c(-c4cc(F)c5nc(C)n(C(C)C)c5c4)n3)nc2)CC1 + C=CC(=O)N1CCN(c2nc(OCC3CCCN3C)nc3c(F)c(-c4nc(N)cc(C)c4C(F)(F)F)c(Cl)cc23)C(C)C1, which viability, T/C is on record?
A: 29.2%

Q: How did the viability, T/C turn out when C[C@@H](NC(=O)c1ncnc(N)c1Cl)c1ncc(C(=O)Nc2cc(C(F)(F)F)c(Cl)cn2)s1 + C=CC(=O)N1CCN(c2nc(OCC3CCCN3C)nc3c(F)c(-c4nc(N)cc(C)c4C(F)(F)F)c(Cl)cc23)C(C)C1 was run?
A: 64.8%

same assay, conditions: second compound 0.1 µM; first compound 3.16 µM; hits give low values

Q: With CC(C)NCC(C(=O)N1CCN(c2ncnc3c2C(C)CC3O)CC1)c1ccc(Cl)cc1 (stereo unspecified) + C=CC(=O)N1CCN(c2nc(OCC3CCCN3C)nc3c(F)c(-c4nc(N)cc(C)c4C(F)(F)F)c(Cl)cc23)C(C)C1 as the compound, how does the viability, T/C read?
A: 54.8%

Q: Which viability, T/C does the source give for CC1(O)CCCC1n1c(=O)c(C(F)F)cc2cnc(NC3CCN(S(C)(=O)=O)CC3)nc21 (stereo unspecified) + C=CC(=O)N1CCN(c2nc(OCC3CCCN3C)nc3c(F)c(-c4nc(N)cc(C)c4C(F)(F)F)c(Cl)cc23)C(C)C1 here?
A: 26.9%

Q: For C[C@@H](NC(=O)c1ncnc(N)c1Cl)c1ncc(C(=O)Nc2cc(C(F)(F)F)c(Cl)cn2)s1 + C=CC(=O)N1CCN(c2nc(OCC3CCCN3C)nc3c(F)c(-c4nc(N)cc(C)c4C(F)(F)F)c(Cl)cc23)C(C)C1, which viability, T/C is on record?
A: 69.9%

same assay, conditions: second compound 0.1 µM; first compound 10 µM; hits give low values

Q: With CC(C)NCC(C(=O)N1CCN(c2ncnc3c2C(C)CC3O)CC1)c1ccc(Cl)cc1 (stereo unspecified) + C=CC(=O)N1CCN(c2nc(OCC3CCCN3C)nc3c(F)c(-c4nc(N)cc(C)c4C(F)(F)F)c(Cl)cc23)C(C)C1 as the compound, how does the viability, T/C read?
A: 49.6%

Q: For CC1(O)CCCC1n1c(=O)c(C(F)F)cc2cnc(NC3CCN(S(C)(=O)=O)CC3)nc21 (stereo unspecified) + C=CC(=O)N1CCN(c2nc(OCC3CCCN3C)nc3c(F)c(-c4nc(N)cc(C)c4C(F)(F)F)c(Cl)cc23)C(C)C1, which viability, T/C is on record?
A: 22%

Q: Which viability, T/C does the source give for C[C@@H](NC(=O)c1ncnc(N)c1Cl)c1ncc(C(=O)Nc2cc(C(F)(F)F)c(Cl)cn2)s1 + C=CC(=O)N1CCN(c2nc(OCC3CCCN3C)nc3c(F)c(-c4nc(N)cc(C)c4C(F)(F)F)c(Cl)cc23)C(C)C1 here?
A: 56.3%

same assay, conditions: second compound 0.316 µM; first compound 0.000316 µM; hits give low values

Q: How did the viability, T/C turn out when CC(C)n1nc(-c2ccc3oc(N)nc3c2)c2c(N)ncnc21 + C=CC(=O)N1CCN(c2nc(OCC3CCCN3C)nc3c(F)c(-c4nc(N)cc(C)c4C(F)(F)F)c(Cl)cc23)C(C)C1 was run?
A: 38.8%

same assay, conditions: second compound 0.316 µM; first compound 0.001 µM; hits give low values

Q: For CC(C)n1nc(-c2ccc3oc(N)nc3c2)c2c(N)ncnc21 + C=CC(=O)N1CCN(c2nc(OCC3CCCN3C)nc3c(F)c(-c4nc(N)cc(C)c4C(F)(F)F)c(Cl)cc23)C(C)C1, which viability, T/C is on record?
A: 37%

same assay, conditions: second compound 0.316 µM; first compound 0.00316 µM; hits give low values

Q: CC(C)n1nc(-c2ccc3oc(N)nc3c2)c2c(N)ncnc21 + C=CC(=O)N1CCN(c2nc(OCC3CCCN3C)nc3c(F)c(-c4nc(N)cc(C)c4C(F)(F)F)c(Cl)cc23)C(C)C1 was tested. Which viability, T/C did it give?
A: 33.1%

Q: For CCN1CCN(Cc2ccc(Nc3ncc(F)c(-c4cc(F)c5nc(C)n(C(C)C)c5c4)n3)nc2)CC1 + C=CC(=O)N1CCN(c2nc(OCC3CCCN3C)nc3c(F)c(-c4nc(N)cc(C)c4C(F)(F)F)c(Cl)cc23)C(C)C1, which viability, T/C is on record?
A: 44.4%

same assay, conditions: second compound 0.316 µM; first compound 0.01 µM; hits give low values

Q: How did the viability, T/C turn out when CC(C)n1nc(-c2ccc3oc(N)nc3c2)c2c(N)ncnc21 + C=CC(=O)N1CCN(c2nc(OCC3CCCN3C)nc3c(F)c(-c4nc(N)cc(C)c4C(F)(F)F)c(Cl)cc23)C(C)C1 was run?
A: 30.9%

Q: How did the viability, T/C turn out when CCN1CCN(Cc2ccc(Nc3ncc(F)c(-c4cc(F)c5nc(C)n(C(C)C)c5c4)n3)nc2)CC1 + C=CC(=O)N1CCN(c2nc(OCC3CCCN3C)nc3c(F)c(-c4nc(N)cc(C)c4C(F)(F)F)c(Cl)cc23)C(C)C1 was run?
A: 41.2%

same assay, conditions: second compound 0.316 µM; first compound 0.0316 µM; hits give low values

Q: With CC(C)NCC(C(=O)N1CCN(c2ncnc3c2C(C)CC3O)CC1)c1ccc(Cl)cc1 (stereo unspecified) + C=CC(=O)N1CCN(c2nc(OCC3CCCN3C)nc3c(F)c(-c4nc(N)cc(C)c4C(F)(F)F)c(Cl)cc23)C(C)C1 as the compound, how does the viability, T/C read?
A: 38.3%
